Experimental data reported in patent US9102899B2, “Organic compounds” (Givaudan SA, priority 2004, dated 2015).

Experiments:
[1] = Odour threshold by gas chromatograph with sniff port, panel of trained individuals; details: GC sniff port; absolute amount of compound delivered at the sniff port; same panel, couples evaluated on the same day
Description: According to standard procedures known to the person skilled in the art, threshold values for volatile perfumery compounds were determined on a gas chromatograph equipped with a sniff port by a panel of trained individuals. The last concentration smelled by each individual was recorded as the individual threshold value expressed in ng (absolute amount of compound delivered at the sniff port). All compounds have been evaluated by the same panel. The couples (saturated and unsaturated compound) were evaluated on the same day.

melting point [°C] | Structure (SMILES) | Odour threshold [1] [ng]
– | CCC(C)=C(C#N)c1ccccc1 (racemic) [Example 3, 3-Methyl-2-phenyl-pent-2-ene nitrile] | 3
– | CCCCCC=C(C#N)c1ccccc1 (stereo in doubt) [Example 2, (2E)-2-Phenyl-oct-2-ene nitrile] | 2
– | CCCCCCC(C#N)c1ccccc1 (centres unmarked) [Comparison Example 2A, reference compound] | 15
– | CCC(C)C(C#N)c1ccccc1 (centres unmarked) [Comparison Example 3A, reference compound] | 26
66 to 67 | CC(C)=C/C=C(/C#N)c1ccccc1 [Example 6, (2E)-5-Methyl-2-phenyl-hexa-2,4-diene nitrile] | –
